Results reported in patent publication US20210069169A1, “PHARMACEUTICAL COMPOSITIONS” (priority 2007, published 2021).
Read-outs that look alike come from different tables or passages of the source.

Tests used:
[1] = test system: postmenopausal women; settings: cited from earlier work
[2] = cited from earlier work
[3] = test system: endometrium; assay: ERC-210: endometrial biopsy; type: in vivo, postmenopausal women; settings: 3 months intravaginal; biopsies before and after 12 weeks
Method: Endometrial biopsy was performed at screening and at month 3 at end of study. All biopsies were examined by the same pathologist at the central laboratory (Dr. Robert Dubé, Department of cytology-pathology, Enfant-Jésus Hospital, Quebec City, Canada).

[4] = Example 2: serum steroids after oral DHEA capsules or percutaneous DHEA cream or gel
Source text: Thirty-six healthy 60-70-year-old postmenopausal women participated in the study after IRB approval and having given their written informed consent. Body weight was within ±20% of normal body weight according to Metropolitan Life Tables.
This study was a randomized open-label trial of 12 subjects per arm. After written informed consent was obtained and women were found eligible, each subject was randomized to receive DHEA by cream, get or orally. Daily, before breakfast, for 14 days, subjects received, at the research clinic, either 4 g of 10% DHEA gel or 4 g of 10% DHEA cream applied on a total 30 cm×30 cm area of the thighs or two 50 mg capsules of DHEA orally before breakfast.
Blood sampling was performed at 08:00-09:00 h at screening and before application of DHEA, on the first day of dosing, as well as on days 2, 4, 7, 10 and 14. On the 1st and 14th days, blood samples were obtained at 0.5 h, 1 h, 1.5 h, 2 h, 3 h, 4 h, 5 h, 6 h, 7 h, 8 h, 12 h and 24 h following DHEA administration. […] Serum steroid analysis
DHEA, DHEA-S, androst-5-ene-3β,17β-diol (5-diol), testosterone, androstenedione (4-dione), 17β-estradiol (E2), estrone (E1), estrone sulfate (E1-S), androsterone glucuronide (ADT-G), and androstane-3,17β-diol glucuronide (3 α-diol-G) were measured by gas chromatography/mass spectrometry (DHEA, 5-diol, 4-dione, testosterone, E1 and E2) using electron impact or chemical ionization and by liquid chromatography/tandem mass spectrometry using turboionspray (DHEA-S, E1-S, ADT-G and 3α-diol-G) as described (Labrie, Bélanger et a., 2006; Labrie, Bélanger, et al, 2007b and Swanson et al. 2007).
On days 1 and 14, the area under the curve of the serum concentration of each steroid was measured between 0 h and 24 h (AUC0-24 h). The areas under the curves were calculated by a linear trapezoidal method (model-independent). The relative bioavailability of the DHEA gel, DHEA cream and DHEA capsules was based on the mean difference in the log-transformed AUC values, All calculations were performed with the SAS software (SAS Institute, Cary, N.C., USA).

[5] = ERC-213: serum DHEA and eleven metabolites after daily intravaginal DHEA suppositories; type: in vivo, postmenopausal women; settings: highest dose (Table 2)
Source text: The primary objective of that study was the evaluation of the systemic bioavailability of DHEA and its metabolites following daily intravaginal application of suppositories at four different DHEA concentrations. This study was a randomized, placebo-controlled and double-blind trial of 10-subjects per arm.

[6] = test system: postmenopausal women suffering from vaginal atrophy; assay: ERC-210: vaginal examination (secretions, color, epithelial integrity, thickness); type: in vivo; settings: 2, 4, 8 and 12 weeks
Source text: At the same time intervals of 2, 4, 8 and 12 weeks, the gynecologist or physician in charge of the study at each site performed a vaginal exam to evaluate the degree of severity (none, mild, moderate or severe, analyzed using values of 0, 1, 2 and 3, respectively) for the main signs of vaginal atrophy, namely vaginal secretions, vaginal color, vaginal epithelial integrity and vaginal epithelial surface thickness. […] In fact. the beneficial effects observed by the gynecologist and or physician are almost superimposable to those self-reported by women on their most bothersome symptoms.
Vaginal examination was performed at screening and then at day 1 and at 2, 4, 8 and 12 weeks. Vaginal secretions, vaginal color, vaginal epithelial integrity and vaginal epithelial surface thickness were evaluated according to the following degrees of severity: none, mild, moderate or severe.

[7] = oral 150 mg (Buster et al. 1992)
[8] = oral 300 mg (Buster et al. 1992)

Compound: CCCCCCCCCCC(=O)O[C@H]1CC[C@H]2[C@@H]3CCC4=CC(=O)CC[C@]4(C)[C@H]3CC[C@]12C [testosterone undecanoate]
- Effect on the endometrium ([1]; 40 mg every second day): no effect on the endometrium

Compound: C[C@]12CC[C@H](O)CC1=CC[C@@H]1[C@@H]2CC[C@]2(C)C(=O)CC[C@@H]12 [micronized DHEA]
- Maximal serum DHEA-S [2, 7]: ~10 µg/mL
- Maximal serum testosterone [2, 7]: ~1.6 ng/mL
- Maximal serum DHEA [2, 8]: ~15 ng/mL
- Maximal serum testosterone [2, 8]: ~2.75 ng/mL

Compound: CCCCC(=O)O[C@H]1CC[C@H]2[C@@H]3CCc4cc(O)ccc4[C@H]3CC[C@]12C [estradiol valerate]
- Increase of Ki labeling in endometrium ([1]; 2 mg/day, 3 months): 50%

Compound: C[C@]12CC[C@H](O)CC1=CC[C@@H]1[C@@H]2CC[C@]2(C)C(=O)CC[C@@H]12 [DHEA, dehydroepiandrosterone]
- Endometrial histology [3]: no effect on endometrial histology
- Higher amount of circulating DHEA-S at same DHEA exposure, oral vs percutaneous ([4]; female, human, serum, po): 6.7-9.0 fold
- Transformation of DHEA into 4-dione, oral vs percutaneous ([4]; female, human, serum, po): 2.70-3.76 times
- Efficacy of transformation into active androgens ([4]; percutaneous DHEA (DHEA change 406%)): 52%
- Average serum DHEA [5]: 4.76 ± 0.42 ng/mL
- Signs of vaginal atrophy at vaginal exam [6]: highly statistically significant improvement of all four signs of vaginal atrophy

Compound: C[C@]12CC[C@@H]3c4ccc(O)cc4CC[C@H]3[C@@H]1CC[C@@H]2O [E2, 17β-estradiol]
- % of cases with persisting dyspareunia ([1]; 25 μg intravaginally, 12 months): 12.4%
- % of patients with pH less than 5 ([1]; 12 weeks intravaginal 25 μg E2 (Bachmann et al. 2008)): 51%
